# According to US20030068615A1, “Polypeptides that bind HIV gp120 and related nucleic acids, antibodies, compositions, and methods of use” (priority 1999, published 2003):
# Where “and” joins values, the source holds several entries; their conditions need not be identical. Equal entries are not always repeated. Where two headings read alike, the source gives them in different places.
# Biological target: HIV-1LAI envelope gp120 (Human immunodeficiency virus type 1 group M subtype B, UniProt P03377)
# Type: binding
# Settings: for Counts per 20′ Average-background: CCR5 18-mer scan; for Relative % of Control: mean of two syntheses and binding experiments ± average deviation, wild-type = 100%
# [1] = radiolabeled HIV-1LAI gp120, background subtracted
# [2] = Panel B, 15-mers and 18-mers of CD4, empty control 575
# [3] = CXCR4 18-mer scan, background subtracted, empty control 0
# [4] = CXCR4 18-mer scan, empty control 412
# [5] = STRL33 18-mer scan, background subtracted, first of two count columns
# [6] = STRL33 18-mer scan, background subtracted, second of two count columns
# [7] = Panel E, 9-mers and 12-mers of CD4, empty control 571
# [8] = Panel D, 9-mers and 12-mers of CD4, empty control […]
# [9] = Panel C, 15-mers and 18-mers of CD4, empty control 556
# [10] = Panel G, alanine replacements and serial truncations (Z) of CD4 polypeptides, empty control 580
sequence,measurement,setting,value
QKHIAKRFCKCCSIFQQE [CCR5 segment 313-],Counts per 20′ Average-background,[1],23 counts per 20′
DQGNFPLIIKNLKIE,COUNTS of radiolabeled gp120 retained,[2],635 counts
FWAVDAVANWYFGNFLCK [CXCR4 segment 93-110],radioactive counts recorded in twenty minutes,[3],66 counts
same,radioactive counts recorded in twenty minutes,[4],478 counts
LVFGLTANSDTHLLQGQS,COUNTS of radiolabeled gp120 retained,[2],564 counts
LLIWVISLLVSLPQIIYG [STRL33 segment 153-170],radioactive counts recorded in twenty minutes,[5],42.5 counts
same,radioactive counts recorded in twenty minutes,[6],75.5 counts
VEFKIDIVVLAF,COUNTS of radiolabeled gp120 retained,[7],681 counts
SRGSSLKILSKGKRGGHS [CXCR4 segment 321-338],radioactive counts recorded in twenty minutes,[3],169 counts
same,radioactive counts recorded in twenty minutes,[4],581 counts
ALAFFHCCLNPILYAFLG [CXCR4 segment 289-306],radioactive counts recorded in twenty minutes,[3],181 counts
same,radioactive counts recorded in twenty minutes,[4],593 counts
QLLVFGLTANSD,COUNTS of radiolabeled gp120 retained,[8],721 counts
MEGISIYTSDNYTEEMAS,Relative % of Control,CXCR4 (1-18) alanine variants,68 ± 8%
TCTVLQNQKKVEFKIDIV,COUNTS of radiolabeled gp120 retained,[9],571 counts
VLQNQKKVE,COUNTS of radiolabeled gp120 retained,[7],556 counts
PVLYAFVSLKFRKNFWKL [STRL33 segment 285-302],radioactive counts recorded in twenty minutes,[5],1859.5 counts
same,radioactive counts recorded in twenty minutes,[6],2147.5 counts
GLTANSDTHLLQ,COUNTS of radiolabeled gp120 retained,[8],574 counts
EFKIDIVVL,COUNTS of radiolabeled gp120 retained,[7],665 counts
EQVEFSFPLAFTVEKLTG,COUNTS of radiolabeled gp120 retained,[9],798 counts
MEGISAYTSDNYTEEMGS,Relative % of Control,CXCR4 (1-18) alanine variants,2 ± 1%
SDTYICEVE,COUNTS of radiolabeled gp120 retained,[8],819 counts
CSSSNRLDQAMQVTETLG [CCR5 segment 269-],Counts per 20′ Average-background,[1],90 counts per 20′
FISLDRYLAIVHATNSQR,radioactive counts recorded in twenty minutes,[3],91 counts
same,radioactive counts recorded in twenty minutes,[4],503 counts
DTYICEVEDQKE,COUNTS of radiolabeled gp120 retained,[8],720 counts
AFTVEKLTGSGELWW,COUNTS of radiolabeled gp120 retained,[9],586 counts
VFGLTANSDTHLLQGQSL,COUNTS of radiolabeled gp120 retained,[2],531 counts
LWDQGNFPLIIKNLK,COUNTS of radiolabeled gp120 retained,[2],502 counts
SEDNSKTFSASHNVEATS [STRL33 segment 321-338],radioactive counts recorded in twenty minutes,[5],524.5 counts
MEGISIYTSDNYTEEAGS,Relative % of Control,CXCR4 (1-18) alanine variants,88 ± 4%
MDYQVSSPIYDINYATSE [CCR5 (1-18) variant Y15A],Relative % of Control,CCR5 (1-18) alanine variants,21 ± 5%
same,"percentage of binding of mutant polypeptide compared to wild-type polypeptide, gp120","CCR5 alanine mutant peptide, radiolabeled HIV-1LAI gp120",21%
GEQVEFSFPLAFAVE,COUNTS of radiolabeled gp120 retained,[10],20627 counts and 19516 counts
THLLQGQSLTLALES,COUNTS of radiolabeled gp120 retained,"Panel F, sequential alanine replacements of CD4 polypeptides, duplicate series, empty control 569",11699 counts and 8147 counts
HSSVSTESESSSFHSS,radioactive counts recorded in twenty minutes,[3],103 counts
same,radioactive counts recorded in twenty minutes,[4],515 counts
TLGFFLPLLTMIVCYSVI,radioactive counts recorded in twenty minutes,[5],2387.5 counts
same,radioactive counts recorded in twenty minutes,[6],479.5 counts
GEQVEFSFPLAFTAE,COUNTS of radiolabeled gp120 retained,[10],18797 counts and 16765 counts
EEVQLLVFG,COUNTS of radiolabeled gp120 retained,[8],3170 counts
FLFWAPYNIVLLLNTFQE [CCR5 segment 245-],Counts per 20′ Average-background,[1],616 counts per 20′
SLKIIFLVMAVFLLTQMP [STRL33 segment 229-246],radioactive counts recorded in twenty minutes,[5],612.5 counts
same,radioactive counts recorded in twenty minutes,[6],853.5 counts
LLLTIPDFIFANVSEADD,radioactive counts recorded in twenty minutes,[3],1006 counts
same,radioactive counts recorded in twenty minutes,[4],1418 counts
FTVEKLTGSGELWWQ,COUNTS of radiolabeled gp120 retained,[9],625 counts
KKEGEQVEFSFPLAFTVE,COUNTS of radiolabeled gp120 retained,[9],4683 counts
LAFTVEKLTGSGELWWQA,COUNTS of radiolabeled gp120 retained,[9],866 counts
LQNQKKVEFKIDIVV,COUNTS of radiolabeled gp120 retained,[9],644 counts
MAGISIYTSDNYTEEMGS [CXCR4 (1-18) variant E2A],Relative % of Control,CXCR4 (1-18) alanine variants,36 ± 0.3%
HDYHEDYGFSSFNDSSQE,"Binding Results For Window Length (counts bound-background), 9","STRL33 amino terminus, 9-mer starting at the first residue of the printed sequence, background subtracted",708 counts
same,"Binding Results For Window Length (counts bound-background), 12","STRL33 amino terminus, 12-mer starting at the first residue of the printed sequence, background subtracted",1427 counts
same,"Binding Results For Window Length (counts bound-background), 15","STRL33 amino terminus, 15-mer starting at the first residue of the printed sequence, background subtracted",1772 counts
same,"Binding Results For Window Length (counts bound-background), 18","STRL33 amino terminus, 18-mer starting at the first residue of the printed sequence, background subtracted",1500 counts
TVLQNQKKVEFKIDI,COUNTS of radiolabeled gp120 retained,[9],587 counts
DIVVLAFQKASSIVY,COUNTS of radiolabeled gp120 retained,[9],776 counts
MDYQVSSAIYDINYYTSE,Relative % of Control,CCR5 (1-18) alanine variants,157 ± 2%
FQKASSIVYKKEGEQVEF,COUNTS of radiolabeled gp120 retained,[9],528 counts
